From ChEMBL document CHEMBL1201862, “PubChem BioAssay data set” (2004)
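Exposure lasted 48 hours, with cells grown in 96-well plates and compounds tested at five concentrations. Here, GI50 denotes the concentration required for 50% inhibition of growth.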 The source made the active and inactive calls. Rule as the data show it: active = GI50 up to about 1.1 µM and inactive = higher.

Experiments:
Test in all cases: growth of human tumour cells (NCI), 48 h
[1] = test system: HCT-15
[2] = test system: HOP-62
[3] = test system: HT-29
[4] = test system: Hs-578T
[5] = test system: KM12
[6] = test system: LOX IMVI
[7] = test system: M14
[8] = test system: MDA-MB-435
[9] = test system: NCI-H23
[10] = test system: RPMI-8226
[11] = test system: SF-268
[12] = test system: SF-539
[13] = test system: SK-MEL-2
[14] = test system: SK-MEL-5
[15] = test system: SK-OV-3
[16] = test system: T47D
[17] = test system: UACC-62
[18] = test system: CCRF-CEM
[19] = test system: HOP-92
[20] = test system: SR

| Compound | GI50 [1] [µM] | GI50 [2] | GI50 [3] | GI50 [4] | GI50 [5] | GI50 [6] | GI50 [7] | GI50 [8] | GI50 [9] | GI50 [10] | GI50 [11] | GI50 [12] | GI50 [13] | GI50 [14] | GI50 [15] | GI50 [16] | GI50 [17] | GI50 [18] | GI50 [19] | GI50 [20] |
| --- | --- | --- | --- | --- | --- | --- | --- | --- | --- | --- | --- | --- | --- | --- | --- | --- | --- | --- | --- | --- |
| O=C1CC2(CCN(Cc3ccccc3)CC2)C(=O)N1N1CCCCC1 | > 100 | > 100 µM (inactive) | > 100 µM (inactive) | > 100 µM (inactive) | > 100 µM (inactive) | > 100 µM (inactive) | > 100 µM (inactive) | > 100 µM (inactive) | > 100 µM (inactive) | > 100 µM (inactive) | > 100 µM (inactive) | > 100 µM (inactive) | > 100 µM (inactive) | > 100 µM (inactive) | > 100 µM (inactive) | > 100 µM (inactive) | > 100 µM (inactive) |  |  |  |
| COc1ccc2c(c1)CC1COc3cc(OC)ccc3C1O2 (centres undefined) | > 100 | > 100 µM (inactive) | 65.3 µM (inactive) |  | > 100 µM (inactive) | > 100 µM (inactive) | > 100 µM (inactive) | > 100 µM (inactive) | > 100 µM (inactive) | > 100 µM (inactive) | 52.5 µM (inactive) | > 100 µM (inactive) | > 100 µM (inactive) | 72.3 µM (inactive) | > 100 µM (inactive) | > 100 µM (inactive) | > 100 µM (inactive) | > 100 µM (inactive) | > 100 µM (inactive) | > 100 µM (inactive) |
| COc1cc(OC)cc(-c2nc3cc(F)ccc3s2)c1 | 55.1 |  | > 100 µM (inactive) |  | > 100 µM (inactive) | 53.8 µM (inactive) | 37.3 µM (inactive) | > 100 µM (inactive) | 12.9 µM (inactive) | > 100 µM (inactive) | 13.8 µM (inactive) | 15.8 µM (inactive) | 23.6 µM (inactive) | > 100 µM (inactive) | 13.5 µM (inactive) | 10.5 µM (inactive) | 16.4 µM (inactive) | > 100 µM (inactive) |  |  |
| Nc1nc(Cl)cc(OCC2(CO)CC=CC2)n1 | > 100 | > 100 µM (inactive) | > 100 µM (inactive) | > 100 µM (inactive) |  | > 100 µM (inactive) |  | > 100 µM (inactive) | > 100 µM (inactive) | > 100 µM (inactive) | > 100 µM (inactive) | > 100 µM (inactive) |  | > 100 µM (inactive) |  |  |  | > 100 µM (inactive) | > 100 µM (inactive) | > 100 µM (inactive) |
| CNC(=S)/N=c1/sc(NC)nc2sc3c(c12)CCCC3 | > 100 | 55 µM (inactive) | > 100 µM (inactive) | 29 µM (inactive) | > 100 µM (inactive) | > 100 µM (inactive) |  | > 100 µM (inactive) | > 100 µM (inactive) | > 100 µM (inactive) | 34.6 µM (inactive) |  | > 100 µM (inactive) | > 100 µM (inactive) | 64.6 µM (inactive) |  | > 100 µM (inactive) | > 100 µM (inactive) | 37.3 µM (inactive) | > 100 µM (inactive) |
| C=CC(CBr)CCC(Br)C(C)(C)Br (centres undefined) | > 10 | > 10 µM (inactive) | > 10 µM (inactive) | > 10 µM (inactive) | > 10 µM (inactive) |  | > 10 µM (inactive) | > 10 µM (inactive) | > 10 µM (inactive) | > 10 µM (inactive) | > 10 µM (inactive) | > 10 µM (inactive) | > 10 µM (inactive) | > 10 µM (inactive) | > 10 µM (inactive) | > 10 µM (inactive) |  | > 10 µM (inactive) | > 10 µM (inactive) |  |
| COc1cc2c(cc1OC)C13CCN4CC5=CCOC(CC(=O)O)C(C5CC41)C3N2 (centres undefined) | > 100 | > 100 µM (inactive) | > 100 µM (inactive) | > 100 µM (inactive) | > 100 µM (inactive) | > 100 µM (inactive) | > 100 µM (inactive) | > 100 µM (inactive) | > 100 µM (inactive) | > 100 µM (inactive) | > 100 µM (inactive) | > 100 µM (inactive) | > 100 µM (inactive) | > 100 µM (inactive) | > 100 µM (inactive) |  | > 100 µM (inactive) | 61.1 µM (inactive) | 78.3 µM (inactive) | > 100 µM (inactive) |
| COc1ccc(/C=C2/CSC/C(=C/c3ccc(OC)c(OC)c3)C2=O)cc1OC | 1.52 | 3.67 µM (inactive) | 1.09 µM (active) |  | 0.798 µM (active) | 1.27 µM (inactive) | 3.04 µM (inactive) | 2.97 µM (inactive) | 2.3 µM (inactive) | 0.472 µM (active) | 1.99 µM (inactive) | 2.03 µM (inactive) | 2.56 µM (inactive) | 2.44 µM (inactive) | 6.73 µM (inactive) | 2.21 µM (inactive) | 1.69 µM (inactive) | 0.849 µM (active) | 8.93 µM (inactive) | 0.828 µM (active) |
| C/C=C1\C(=O)O[C@H]2C/C(C)=C/CC/C(C)=C/CC[C@@]3(C)O[C@@H]3C[C@@H]12 | 54.3 | > 100 µM (inactive) | > 100 µM (inactive) |  | > 100 µM (inactive) |  | > 100 µM (inactive) | > 100 µM (inactive) |  | 74.1 µM (inactive) | > 100 µM (inactive) | > 100 µM (inactive) | > 100 µM (inactive) | > 100 µM (inactive) | > 100 µM (inactive) | > 100 µM (inactive) | > 100 µM (inactive) | 35 µM (inactive) |  | 37.8 µM (inactive) |
| COc1cc(C2c3cc4c(cc3[C@@H](Nc3ccc(F)cc3)C3CO[C@@H](O)[C@H]23)OCO4)cc(OC)c1O (some centres undefined) | 3.89 | 5.07 µM (inactive) |  | 0.697 µM (active) | 5.66 µM (inactive) |  | 5.26 µM (inactive) | 12.3 µM (inactive) |  | 2.26 µM (inactive) | 6.71 µM (inactive) | 1.03 µM (active) |  | 6.18 µM (inactive) | 8.65 µM (inactive) | 3.72 µM (inactive) |  | 0.925 µM (active) |  |  |
| c1ccc(P2c3ccccc3Nc3ccccc32)cc1 | > 100 | 64.9 µM (inactive) | 49 µM (inactive) |  | 37.2 µM (inactive) | 45.8 µM (inactive) | 66.2 µM (inactive) | > 100 µM (inactive) | 72.9 µM (inactive) |  | 71.6 µM (inactive) | 59.8 µM (inactive) | 36 µM (inactive) | 30.8 µM (inactive) | > 100 µM (inactive) | 55.2 µM (inactive) | 37.8 µM (inactive) | 23.6 µM (inactive) | 30.1 µM (inactive) | 23.2 µM (inactive) |
| O=C1OS2(OCc3cccc4cccc2c34)c2ccccc21 (centres undefined) | > 100 | > 100 µM (inactive) | > 100 µM (inactive) |  | > 100 µM (inactive) | > 100 µM (inactive) | > 100 µM (inactive) | > 100 µM (inactive) | > 100 µM (inactive) | > 100 µM (inactive) | > 100 µM (inactive) | > 100 µM (inactive) | > 100 µM (inactive) | > 100 µM (inactive) | > 100 µM (inactive) | > 100 µM (inactive) | > 100 µM (inactive) | 40.3 µM (inactive) | > 100 µM (inactive) | > 100 µM (inactive) |
